Test results published in US20230117680A1, “CYCLOPHILIN D INHIBITORS AND USES THEREOF” (The Broad Institute, Inc., priority 2019, published 2023).
“Also recorded” adds a separate entry of the source. Values belong to the compound of their own block, whether it stands above or below them.

Legend:
[1] = test system: mPTP in isolated mice kidney mitochondria; experiment: inhibition of mPTP in isolated mitochondria (tolerated Ca2+ pulses before full mPTP opening); settings: result in words
Experimental: In isolated mice kidney mitochondria, the maximum number of Ca^2+ pulses that could be tolerated before full mPTP opening was measured (see FIG. 24).

[2] = test system: 10 other cyclophilins with reported prolyl isomerase activity; experiment: cyclophilin specificity screen: CypD against the other cyclophilins; format: biochemical
Text: (§1) The selectivity of a compound described herein in inhibiting the activity of a first cyclophilin (e.g., CypD) over a second cyclophilin may be measured by the quotient of the IC50 value of the compound in inhibiting the activity of the second cyclophilin over the IC50 value of the compound in inhibiting the activity of the first cyclophilin. The selectivity of a compound described herein in modulating the activity of a first cyclophilin over a second cyclophilin may also be measured by the quotient of the Kd value of an adduct of the compound and the second cyclophilin over the Kd value of an adduct of the compound and the first cyclophilin (e.g., CypD). […] In certain embodiments, selectivity for inhibiting a first cyclophilin over other cyclophilins is measured by Surface Plasmon Resonance (SPR) assays as disclosed in the Examples.
(§2) Following the synthesis of the indicated library members, in vitro inhibition (IC50) assays of these hits were conducted to obtain IC50 inhibitory data. For the IC50 assays, a chymotrypsin coupled PPIase assay using Suc-AAPF-AMC as the peptide substrate was used, whereby isomerization of a peptide substrate Suc-AAPF-AMC from the cis to trans conformation allowed for proteolysis via excess a-chymotrypsin, releasing the C-terminal coumarin fluorophore.
Subsequently, to determine if the compounds could both access the S2 pocket and display CypD specificity, JOMBtrans and compound 49 were screened against the 10 other cyclophilins with reported prolyl isomerase activity. […] Co-crystal structures of JOMBtrans and 49 were solved with CypD.

CypD = CypD (Homo sapiens, UniProt P30405); experiment: chymotrypsin coupled PPIase assay (Suc-AAPF-AMC substrate), CypD inhibition; format: biochemical
CypD, sequence (P30405 30-207): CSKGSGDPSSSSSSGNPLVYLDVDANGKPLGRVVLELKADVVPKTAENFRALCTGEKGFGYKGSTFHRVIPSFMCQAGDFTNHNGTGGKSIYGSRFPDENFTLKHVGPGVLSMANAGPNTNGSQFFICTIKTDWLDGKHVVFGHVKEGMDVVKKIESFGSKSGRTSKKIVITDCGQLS
Text: as §1, §2

NKTR = target: T1, NKTR (Homo sapiens, UniProt P30414); experiment: chymotrypsin coupled PPIase assay, NKTR inhibition; format: biochemical; settings: result in words
T1 sequence (P30414 1-1462): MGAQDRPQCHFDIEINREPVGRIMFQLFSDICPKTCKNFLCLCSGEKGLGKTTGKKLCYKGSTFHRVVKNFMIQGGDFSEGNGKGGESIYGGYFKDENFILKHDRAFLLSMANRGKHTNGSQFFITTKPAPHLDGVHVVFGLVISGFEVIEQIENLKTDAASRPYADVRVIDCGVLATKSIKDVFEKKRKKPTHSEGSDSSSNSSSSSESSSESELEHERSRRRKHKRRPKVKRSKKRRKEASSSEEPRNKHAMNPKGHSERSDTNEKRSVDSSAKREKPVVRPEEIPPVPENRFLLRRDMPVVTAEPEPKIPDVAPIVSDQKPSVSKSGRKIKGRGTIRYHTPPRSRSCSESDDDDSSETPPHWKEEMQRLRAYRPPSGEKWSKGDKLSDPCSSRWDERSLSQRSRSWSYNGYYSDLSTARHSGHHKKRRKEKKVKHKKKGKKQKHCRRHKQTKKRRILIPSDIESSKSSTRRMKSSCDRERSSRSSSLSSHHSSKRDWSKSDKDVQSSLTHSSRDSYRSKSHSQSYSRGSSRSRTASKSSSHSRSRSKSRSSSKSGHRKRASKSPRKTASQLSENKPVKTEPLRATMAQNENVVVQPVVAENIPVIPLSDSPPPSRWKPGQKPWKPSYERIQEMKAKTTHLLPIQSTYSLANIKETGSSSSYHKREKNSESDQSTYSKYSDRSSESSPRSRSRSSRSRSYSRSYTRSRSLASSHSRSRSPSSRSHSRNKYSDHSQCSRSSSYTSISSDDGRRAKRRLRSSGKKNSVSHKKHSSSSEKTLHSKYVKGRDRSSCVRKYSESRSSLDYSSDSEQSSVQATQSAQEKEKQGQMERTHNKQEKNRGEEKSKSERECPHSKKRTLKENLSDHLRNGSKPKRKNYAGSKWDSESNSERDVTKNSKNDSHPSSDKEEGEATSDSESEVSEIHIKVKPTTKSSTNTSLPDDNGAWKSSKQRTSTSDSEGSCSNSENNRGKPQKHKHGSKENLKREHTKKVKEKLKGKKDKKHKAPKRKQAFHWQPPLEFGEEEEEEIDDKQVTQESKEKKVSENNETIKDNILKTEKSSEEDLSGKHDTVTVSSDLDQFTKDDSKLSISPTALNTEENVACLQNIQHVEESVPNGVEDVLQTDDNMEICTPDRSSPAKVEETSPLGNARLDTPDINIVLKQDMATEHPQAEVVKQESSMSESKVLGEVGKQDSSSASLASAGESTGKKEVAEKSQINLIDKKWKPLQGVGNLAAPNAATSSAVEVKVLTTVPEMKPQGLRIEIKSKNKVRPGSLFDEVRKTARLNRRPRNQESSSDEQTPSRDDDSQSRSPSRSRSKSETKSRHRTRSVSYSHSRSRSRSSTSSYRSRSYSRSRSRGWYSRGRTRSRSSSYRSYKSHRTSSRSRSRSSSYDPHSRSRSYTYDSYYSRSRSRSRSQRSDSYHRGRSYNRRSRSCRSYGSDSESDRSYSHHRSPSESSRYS
Experimental: as §2, with “fluorophore. […] Other non-inhibitor library members were also checked for binding via SPR, but produced the same profile as the prolyl isomerase assay.” for “fluorophore.”
(§3) Subsequently, to determine if the compounds could both access the S2 pocket and display CypD specificity, JOMBtrans and compound 49 were screened against the 10 other cyclophilins with reported prolyl isomerase activity. […] Co-crystal structures of JOMBtrans and 49 were solved with CypD. […] Three further H-bonds with the macrocycle's backbone and CypD were observed along with a cation-n interaction. […] The benzyl group on the piperidine ring altered the conformation of the macrocycle to open up two new hydrogen bonding interactions with CypD. […] This improvement in specificity compared to JOMBtrans signified that more CypD specific compounds can be garnered by derivatization into the S2 pocket.

CypG = target: T2, CypG (Homo sapiens, UniProt Q13427); experiment: chymotrypsin coupled PPIase assay, CypG inhibition; format: biochemical; settings: result in words
T2 sequence (Q13427 1-754): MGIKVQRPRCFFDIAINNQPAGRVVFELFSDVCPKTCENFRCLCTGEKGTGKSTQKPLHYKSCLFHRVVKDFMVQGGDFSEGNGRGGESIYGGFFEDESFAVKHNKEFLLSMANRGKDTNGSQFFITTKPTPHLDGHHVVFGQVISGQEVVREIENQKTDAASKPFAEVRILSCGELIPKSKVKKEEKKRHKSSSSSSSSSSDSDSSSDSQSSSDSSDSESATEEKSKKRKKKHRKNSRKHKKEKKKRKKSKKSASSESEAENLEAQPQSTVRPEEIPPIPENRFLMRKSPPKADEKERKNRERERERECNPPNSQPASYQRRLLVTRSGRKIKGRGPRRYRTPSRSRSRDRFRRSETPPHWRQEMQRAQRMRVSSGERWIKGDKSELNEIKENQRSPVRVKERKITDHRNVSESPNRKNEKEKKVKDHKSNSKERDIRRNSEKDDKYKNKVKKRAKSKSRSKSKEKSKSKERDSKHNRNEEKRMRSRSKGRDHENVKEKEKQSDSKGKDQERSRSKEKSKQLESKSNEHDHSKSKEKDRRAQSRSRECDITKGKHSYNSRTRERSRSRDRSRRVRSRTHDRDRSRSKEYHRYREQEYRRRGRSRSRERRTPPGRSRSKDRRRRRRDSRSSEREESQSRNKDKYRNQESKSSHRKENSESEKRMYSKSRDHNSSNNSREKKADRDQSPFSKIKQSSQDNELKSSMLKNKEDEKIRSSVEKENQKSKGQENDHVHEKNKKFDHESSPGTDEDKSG
Experimental: as §2, with “fluorophore. […] Other non-inhibitor library members were also checked for binding via SPR, but produced the same profile as the prolyl isomerase assay.” for “fluorophore.”
as §3

PPWD1 = target: T3, PPWD1 (Homo sapiens, UniProt Q96BP3); experiment: chymotrypsin coupled PPIase assay, PPWD1 inhibition; format: biochemical; settings: result in words
T3 sequence (Q96BP3 1-646): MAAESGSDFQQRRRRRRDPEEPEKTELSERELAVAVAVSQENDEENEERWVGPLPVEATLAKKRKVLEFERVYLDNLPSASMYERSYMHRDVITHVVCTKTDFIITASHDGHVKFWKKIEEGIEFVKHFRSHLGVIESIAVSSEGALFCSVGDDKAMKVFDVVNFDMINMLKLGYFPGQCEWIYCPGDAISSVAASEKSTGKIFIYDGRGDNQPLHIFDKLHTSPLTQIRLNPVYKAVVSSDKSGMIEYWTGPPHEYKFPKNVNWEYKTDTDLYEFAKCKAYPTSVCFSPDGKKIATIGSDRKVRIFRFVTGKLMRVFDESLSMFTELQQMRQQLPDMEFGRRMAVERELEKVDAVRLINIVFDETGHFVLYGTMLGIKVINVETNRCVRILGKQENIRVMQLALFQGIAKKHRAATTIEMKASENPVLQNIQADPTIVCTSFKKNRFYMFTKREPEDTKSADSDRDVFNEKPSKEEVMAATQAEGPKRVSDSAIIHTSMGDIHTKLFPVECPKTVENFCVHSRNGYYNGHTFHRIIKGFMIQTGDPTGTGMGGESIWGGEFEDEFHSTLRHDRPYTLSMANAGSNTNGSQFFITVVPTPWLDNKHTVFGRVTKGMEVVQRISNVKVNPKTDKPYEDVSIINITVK
Experimental: as §2, with “fluorophore. […] Other non-inhibitor library members were also checked for binding via SPR, but produced the same profile as the prolyl isomerase assay.” for “fluorophore.”
as §3

CypH = CypH (Homo sapiens, UniProt O43447); experiment: chymotrypsin coupled PPIase assay, CypH inhibition; format: biochemical; settings: result in words
CypH, sequence (O43447 whole entry): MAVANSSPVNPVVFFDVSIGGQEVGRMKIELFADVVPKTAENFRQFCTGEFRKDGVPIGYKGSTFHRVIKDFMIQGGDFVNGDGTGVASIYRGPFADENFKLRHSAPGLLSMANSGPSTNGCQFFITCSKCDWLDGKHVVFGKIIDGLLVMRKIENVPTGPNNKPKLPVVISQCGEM
Experimental: as §2, with “fluorophore. […] Other non-inhibitor library members were also checked for binding via SPR, but produced the same profile as the prolyl isomerase assay.” for “fluorophore.”
as §3

Compound: CC(=O)c1ccc(-c2ccc(C[C@@H]3NC(=O)[C@]4(Cc5ccccc5)CCCN(C4)C(=O)/C=C/C(=O)NCC[C@@H](C(N)=O)NC(=O)Cc4ccccc4CNC3=O)cc2)cc1 [A-22b]
- number of tolerated Ca2+ pulses before full mPTP opening [1]: extended pulse number

Compound: NCCOCCNC(=O)[C@@H]1CCNC(=O)/C=C/C(=O)N2CCC[C@](Cc3ccccc3)(C2)C(=O)N[C@@H](Cc2ccc(-c3ccc(C(=O)O)cc3)cc2)C(=O)NCc2ccccc2CC(=O)N1 [A-54]
- specificity / selectivity profile for CypD (in words) ([2]; result in words): best specificity profiles; also recorded: preference for CypD

- increase in potency compared to JOMBtrans (CypD): 75 fold
- IC50 (CypD; read-out: potency for CypD): 0.2 µM
- potency for CypD (in words) (CypD; result in words): low potency
- specificity for CypD compared to any other cyclophilins [2]: approximately 10 fold
- decrease in inhibition against other family members compared to CypD ([2]; result in words): at most a ten-fold decrease
Compound: NCCOCCNC(=O)[C@@H]1CCNC(=O)/C=C/C(=O)N2CCC[C@](Cc3ccccc3)(C2)C(=O)N[C@@H](Cc2ccco2)C(=O)NCc2ccccc2CC(=O)N1 [compound 49]
- specificity / selectivity profile for CypD (in words) ([2]; result in words): low specificity; also recorded: very promiscuous cyclophilin inhibition

Compound: NC(=O)[C@@H]1CCNC(=O)/C=C/C(=O)N2CCC[C@](Cc3ccccc3)(C2)C(=O)N[C@@H](Cc2ccc(-c3ccc(CCC(=O)O)cc3)cc2)C(=O)NCc2ccccc2CC(=O)N1 [A-81b]
- number of tolerated Ca2+ pulses before full mPTP opening [1]: extended pulse number; also recorded: almost as potent as CsA

- inhibition of NKTR (NKTR): abolished inhibition
- inhibition of CypG (CypG): abolished inhibition
- inhibition of PPWD1 (PPWD1): abolished inhibition
- inhibition of CypH (CypH): abolished inhibition
Compound: CC(C)(C)c1ccc(C[C@@H]2NC(=O)[C@]3(Cc4ccccc4)CCCN(C3)C(=O)/C=C/C(=O)NCC[C@@H](C(=O)NCCOCCN)NC(=O)Cc3ccccc3CNC2=O)cc1 [A-9]

- specificity / selectivity profile for CypD (in words) ([2]; result in words): preference for CypD
Compound: NCCOCCNC(=O)[C@@H]1CCNC(=O)/C=C/C(=O)N2CCC[C@](Cc3ccccc3)(C2)C(=O)N[C@@H](Cc2ccc(-c3ccc(/C=C/C(=O)O)cc3)cc2)C(=O)NCc2ccccc2CC(=O)N1 [A-82]

- inhibition of NKTR (NKTR): abolished inhibition
- inhibition of CypG (CypG): abolished inhibition
- inhibition of PPWD1 (PPWD1): abolished inhibition
- inhibition of CypH (CypH): abolished inhibition
Compound: NCCOCCNC(=O)[C@@H]1CCNC(=O)/C=C/C(=O)N2CCC[C@](Cc3ccccc3)(C2)C(=O)N[C@@H](Cc2ccc(C(=O)c3ccccc3)cc2)C(=O)NCc2ccccc2CC(=O)N1 [A-1]

- specificity / selectivity profile for CypD (in words) ([2]; result in words): preference for CypD
Compound: NCCOCCNC(=O)[C@@H]1CCNC(=O)/C=C/C(=O)N2CCC[C@](Cc3ccccc3)(C2)C(=O)N[C@@H](Cc2ccc(-c3ccc(CC(=O)O)cc3)cc2)C(=O)NCc2ccccc2CC(=O)N1 [A-63]

Compound: Cc1cc(C(=O)O)ccc1-c1ccc(C[C@@H]2NC(=O)[C@]3(Cc4ccccc4)CCCN(C3)C(=O)/C=C/C(=O)NCC[C@@H](C(=O)NCCOCCN)NC(=O)Cc3ccccc3CNC2=O)cc1 [A-57]
- specificity / selectivity profile for CypD (in words) ([2]; result in words): best specificity profiles; also recorded: preference for CypD
